Data published in patent US12209102B2, “Heterocyclic compounds and uses thereof” (Kumquat Biosciences Inc., priority 2022, dated 2025).
pIC50: −log10 of the molar value.

Tests used:
K-Ras G12S = target: T1, K-Ras G12S (Homo sapiens, UniProt P01116, G12S); experiment: HTRF resonance energy transfer assay, K-Ras G12S / SOS1 interaction; type: biochemical; settings: HTRF assay of Example 5; read-out: IC50 against K-Ras G12S
T1 construct: made in house; host or cells: E. coli BL21 (DE3)
Outline: (§1)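 Compounds, tested in duplicate at 10 μM down to 0.01 μM, were read after about 10 min or more by HTRF as the 665/620 nm emission ratio (337 nm excitation) to derive IC50. This ratio reports FRET between an anti-GST-Eu donor on GST-K-Ras (wild-type or mutant) and an anti-6His-XL665 acceptor on His-hSOS1. Buffer: ~5 mM HEPES pH 7.4, 150 mM NaCl, 1 mM DTT, 0.05% BSA, 0.0025% Igepal.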

K-Ras G12V = target: T2, K-Ras G12V (Homo sapiens, UniProt P01116, G12V); experiment: HTRF resonance energy transfer assay, K-Ras G12V / SOS1 interaction; type: biochemical; settings: HTRF assay of Example 5; read-out: IC50 against K-Ras G12V
T2 construct: made in house; host or cells: E. coli BL21 (DE3)
T2 sequence (P01116 1-188 isoform P01116-2 G12V): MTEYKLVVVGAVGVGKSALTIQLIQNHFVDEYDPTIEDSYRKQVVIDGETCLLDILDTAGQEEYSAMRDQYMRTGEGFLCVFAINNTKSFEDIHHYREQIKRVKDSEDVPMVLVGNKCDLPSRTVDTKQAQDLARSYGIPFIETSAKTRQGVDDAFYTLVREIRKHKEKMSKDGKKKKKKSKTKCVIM
Outline: as §1

K-Ras G12D = target: T3, K-Ras G12D (Homo sapiens, UniProt P01116, G12D); experiment: HTRF resonance energy transfer assay, K-Ras G12D / SOS1 interaction; type: biochemical; settings: HTRF assay of Example 5; read-out: IC50 against K-Ras G12D
T3 construct: made in house; host or cells: E. coli BL21 (DE3)
T3 sequence (P01116 1-188 isoform P01116-2 G12D): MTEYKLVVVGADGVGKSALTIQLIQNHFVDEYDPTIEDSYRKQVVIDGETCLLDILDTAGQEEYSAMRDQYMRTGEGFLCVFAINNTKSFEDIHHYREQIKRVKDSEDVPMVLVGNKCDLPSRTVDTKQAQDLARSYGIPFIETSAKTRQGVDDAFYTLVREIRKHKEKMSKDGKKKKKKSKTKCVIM
Outline: as §1

SW620 cells = experiment: Ras cellular assay, growth of cells with K-Ras G12V mutation (CellTiter-Glo); type: cell-based; settings: Homo sapiens, SW-620; cell growth, Example 9, G12V mutation; read-out: IC50 against SW620 cells
Outline: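 IC50 values came from a four-parameter fit of CellTiter-Glo viability, read roughly 6 days after dosing with e.g. a 10-point threefold dilution series. G12V-mutant SW620 cells (e.g. 800 per well) had been plated the previous day in RPMI-1640/10% heat-inactivated FBS, on tissue culture-treated or ultra-low attachment plates.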

K-Ras WT = target: T4, K-Ras WT (Homo sapiens, UniProt P01116); experiment: HTRF resonance energy transfer assay, K-Ras WT / SOS1 interaction; type: biochemical; settings: HTRF assay of Example 5; read-out: IC50 against K-Ras WT
T4 construct: made in house; host or cells: E. coli BL21 (DE3)
T4 sequence (P01116 1-188 isoform P01116-2): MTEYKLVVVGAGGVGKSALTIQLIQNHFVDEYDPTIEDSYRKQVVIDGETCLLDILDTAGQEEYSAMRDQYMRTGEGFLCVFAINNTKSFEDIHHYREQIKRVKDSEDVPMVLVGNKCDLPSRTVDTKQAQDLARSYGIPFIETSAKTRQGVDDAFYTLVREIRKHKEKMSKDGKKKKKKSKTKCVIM
Outline: as §1

A549 cells = experiment: Ras cellular assay, growth of cells with K-Ras G12S mutation (CellTiter-Glo); type: cell-based; settings: Homo sapiens, cell growth, Example 9, G12S mutation, read-out: IC50 against A549 cells
Outline: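 Growth inhibition IC50 values come from four-parameter fits of CellTiter-Glo luminescence, read about 6 days after compound addition. G12S-mutant A549 cells (e.g. 800/well, RPMI-1640 + 10% heat-inactivated FBS) were plated in tissue-culture-treated or ultra-low-attachment 384-well format. Dosing began the following day with serial dilutions, e.g. 10 points, 3-fold.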

T1 sequence (P01116 1-188 isoform P01116-2 G12S): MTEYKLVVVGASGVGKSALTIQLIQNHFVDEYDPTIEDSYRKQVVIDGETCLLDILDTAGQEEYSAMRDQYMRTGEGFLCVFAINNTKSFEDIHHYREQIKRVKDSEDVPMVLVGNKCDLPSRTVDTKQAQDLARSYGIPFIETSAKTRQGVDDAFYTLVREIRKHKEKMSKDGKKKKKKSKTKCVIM

| SMILES | pIC50 (K-Ras G12S) | pIC50 (K-Ras G12V) | pIC50 (K-Ras G12D) | pIC50 (SW620 cells) | pIC50 (K-Ras WT) | pIC50 (A549 cells) |
| --- | --- | --- | --- | --- | --- | --- |
| CC1Oc2c(Cl)c(-c3ccc(F)c4sc(N)c(C#N)c34)c(F)c3nc(OC[C@@]45CCCN4C[C@H](F)C5)nc(c23)N(C2CC2)C1C (stereo partly drawn) [Compound 929, 2-amino-4-(8-chloro-4-cyclopropyl-10-fluoro-2-(((2R,7aS)-2-fluorotetrahydro-1H-pyrrolizin-7a(5H)-yl)methoxy)-5,6-dimethyl-5,6-dihydro-4H-[1,4]oxazepino[5,6,7-de]quinazolin-9-yl)-7-fluorobenzo[b]thiophene-3-carbonitrile] | > 7.00 | > 7.00 | > 7.00 | > 5.30 | > 7.00 | > 5.30 |
| COC1CN(C(=O)N2CCC(N3C[C@H](C)Oc4c(Cl)c(-c5ccc(F)c6sc(N)c(C#N)c56)c(F)c5nc(OC[C@@]67CCCN6C[C@H](F)C7)nc3c45)CC2)C1 [Compound 935, 2-amino-4-((6S)-8-chloro-10-fluoro-2-(((2R,7aS)-2-fluorotetrahydro-1H-pyrrolizin-7a(5H)-yl)methoxy)-4-(1-(3-methoxyazetidine-1-carbonyl)piperidin-4-yl)-6-methyl-5,6-dihydro-4H-[1,4]oxazepino[5,6,7-de]quinazolin-9-yl)-7-fluorobenzo[b]thiophene-3-carbonitrile] | > 7.00 | > 7.00 | > 7.00 | > 5.30 | > 7.00 | > 5.30 |
| COCCN1CCC(N2CCOc3c(Cl)c(-c4ccc(F)c5sc(N)c(C#N)c45)c(F)c4nc(OC[C@@]56CCCN5C[C@H](F)C6)nc2c34)C1 (stereo partly drawn) [Compound 936, 2-amino-4-(8-chloro-10-fluoro-2-(((2R,7aS)-2-fluorotetrahydro-1H-pyrrolizin-7a(5H)-yl)methoxy)-4-(1-(2-methoxyethyl)pyrrolidin-3-yl)-5,6-dihydro-4H-[1,4]oxazepino[5,6,7-de]quinazolin-9-yl)-7-fluorobenzo[b]thiophene-3-carbonitrile] | > 7.00 | > 7.00 | > 7.00 | > 5.30 | > 7.00 | > 5.30 |
| C#Cc1c(F)ccc2cc(O)cc(-c3nc4c5c(nc(OC[C@@]67CCCN6C[C@H](F)C7)nc5c3F)N(c3ccccc3)CCO4)c12 [Compound 948, 5-ethynyl-6-fluoro-4-(4-fluoro-2-(((2R,7aS)-2-fluorotetrahydro-1H-pyrrolizin-7a(5H)-yl)methoxy)-10-phenyl-9,10-dihydro-8H-7-oxa-1,3,6,10-tetraazacyclohepta[de]naphthalen-5-yl)naphthalen-2-ol] | > 7.00 | > 7.00 | > 7.00 | > 5.30 | > 7.00 | > 5.30 |
| N#Cc1c(N)sc2c(F)ccc(-c3c(Cl)c4c5c(nc(OC[C@@]67CCCN6C[C@H](F)C7)nc5c3F)N(C3CCN(C(=O)C(F)Cl)C3)CCO4)c12 (stereo partly drawn) [Compound 949, 2-amino-4-(8-chloro-4-(1-(2-chloro-2-fluoroacetyl)pyrrolidin-3-yl)-10-fluoro-2-(((2R,7aS)-2-fluorotetrahydro-1H-pyrrolizin-7a(5H)-yl)methoxy)-5,6-dihydro-4H-[1,4]oxazepino[5,6,7-de]quinazolin-9-yl)-7-fluorobenzo[b]thiophene-3-carbonitrile] | > 7.00 | > 7.00 | > 7.00 | > 5.30 | > 7.00 | > 5.30 |
| N#Cc1c(N)sc2c(F)ccc(-c3c(Cl)c4c5c(nc(OC[C@@]67CCCN6C[C@H](F)C7)nc5c3F)N(C3CC(F)(F)C3)CCO4)c12 [Compound 956, 2-amino-4-(8-chloro-4-(3,3-difluorocyclobutyl)-10-fluoro-2-(((2R,7aS)-2-fluorotetrahydro-1H-pyrrolizin-7a(5H)-yl)methoxy)-5,6-dihydro-4H-[1,4]oxazepino[5,6,7-de]quinazolin-9-yl)-7-fluorobenzo[b]thiophene-3-carbonitrile] | > 7.00 | > 7.00 | > 7.00 | > 5.30 | > 7.00 | > 5.30 |
| C[C@H]1CN([C@@H]2CCOC2)c2nc(OC[C@@]34CCCN3C[C@H](F)C4)nc3c(F)c(-c4ccc(F)c5sc(N)c(C#N)c45)c(Cl)c(c23)O1 [Compound 958, 2-amino-4-((6S)-8-chloro-10-fluoro-2-(((2R,7aS)-2-fluorotetrahydro-1H-pyrrolizin-7a(5H)-yl)methoxy)-6-methyl-4-((R)-tetrahydrofuran-3-yl)-5,6-dihydro-4H-[1,4]oxazepino[5,6,7-de]quinazolin-9-yl)-7-fluorobenzo[b]thiophene-3-carbonitrile] | > 7.00 | > 7.00 | > 7.00 | > 5.30 | > 7.00 | > 5.30 |
| N#Cc1c(N)sc2c(F)ccc(-c3c(Cl)c4c5c(nc(OC[C@@]67CCCN6C[C@H](F)C7)nc5c3F)N(CC3(C#N)CCC3)CCO4)c12 [Compound 963, 2-amino-4-(8-chloro-4-((1-cyanocyclobutyl)methyl)-10-fluoro-2-(((2R,7aS)-2-fluorotetrahydro-1H-pyrrolizin-7a(5H)-yl)methoxy)-5,6-dihydro-4H-[1,4]oxazepino[5,6,7-de]quinazolin-9-yl)-7-fluorobenzo[b]thiophene-3-carbonitrile] | > 7.00 | > 7.00 | > 7.00 | > 5.30 | > 7.00 | > 5.30 |
| N#Cc1c(N)sc2c(F)ccc(-c3c(Cl)c4c5c(nc(OC[C@@]67CCCN6C[C@H](F)C7)nc5c3F)N(C3CCN(C(=O)C(F)F)CC3)CCO4)c12 [Compound 971, 2-amino-4-(8-chloro-4-(1-(2,2-difluoroacetyl)piperidin-4-yl)-10-fluoro-2-(((2R,7aS)-2-fluorotetrahydro-1H-pyrrolizin-7a(5H)-yl)methoxy)-5,6-dihydro-4H-[1,4]oxazepino[5,6,7-de]quinazolin-9-yl)-7-fluorobenzo[b]thiophene-3-carbonitrile] | > 7.00 | > 7.00 | > 7.00 | > 5.30 | > 7.00 | > 5.30 |
| CC(COC(F)F)N1CCOc2c(Cl)c(-c3ccc(F)c4sc(N)c(C#N)c34)c(F)c3nc(OC[C@@]45CCCN4C[C@H](F)C5)nc1c23 (stereo partly drawn) [Compound 973, 2-amino-4-(8-chloro-4-(1-(difluoromethoxy)propan-2-yl)-10-fluoro-2-(((2R,7aS)-2-fluorotetrahydro-1H-pyrrolizin-7a(5H)-yl)methoxy)-5,6-dihydro-4H-[1,4]oxazepino[5,6,7-de]quinazolin-9-yl)-7-fluorobenzo[b]thiophene-3-carbonitrile] | > 7.00 | > 7.00 | > 7.00 | > 5.30 | > 7.00 | > 5.30 |
| N#Cc1c(N)sc2c(F)ccc(-c3c(Cl)c4c5c(nc(OC[C@@]67CCCN6C[C@H](F)C7)nc5c3F)N(C3CC35CNC5)CCO4)c12 (stereo partly drawn) [Compound 990, 2-amino-4-(8-chloro-10-fluoro-2-(((2R,7aS)-2-fluorotetrahydro-1H-pyrrolizin-7a(5H)-yl)methoxy)-4-(5-azaspiro[2.3]hexan-1-yl)-5,6-dihydro-4H-[1,4]oxazepino[5,6,7-de]quinazolin-9-yl)-7-fluorobenzo[b]thiophene-3-carbonitrile] | > 7.00 | > 7.00 | > 7.00 | > 5.30 | > 7.00 | > 5.30 |
| C[C@H]1COc2c(Cl)c(-c3ccc(F)c4sc(N)c(C#N)c34)c(F)c3nc(OC[C@@]45CCCN4C[C@H](F)C5)nc(c23)N1C1CCN(C(=O)C2CC2C#N)CC1 (stereo partly drawn) [Compound 995, 2-amino-4-((5S)-8-chloro-4-(1-(2-cyanocyclopropane-1-carbonyl)piperidin-4-yl)-10-fluoro-2-(((2R,7aS)-2-fluorotetrahydro-1H-pyrrolizin-7a(5H)-yl)methoxy)-5-methyl-5,6-dihydro-4H-[1,4]oxazepino[5,6,7-de]quinazolin-9-yl)-7-fluorobenzo[b]thiophene-3-carbonitrile] | > 7.00 | > 7.00 | > 7.00 | > 5.30 | > 7.00 | > 5.30 |
| N#Cc1c(N)sc2c(F)ccc(-c3c(Cl)c4c5c(nc(OC[C@@]67CCCN6C[C@H](F)C7)nc5c3F)N(C3CCC5(C3)CN(C(=O)C3CC3)C5)CCO4)c12 (stereo partly drawn) [Compound 1011, 2-amino-4-(8-chloro-4-(2-(cyclopropanecarbonyl)-2-azaspiro[3.4]octan-6-yl)-10-fluoro-2-(((2R,7aS)-2-fluorotetrahydro-1H-pyrrolizin-7a(5H)-yl)methoxy)-5,6-dihydro-4H-[1,4]oxazepino[5,6,7-de]quinazolin-9-yl)-7-fluorobenzo[b]thiophene-3-carbonitrile] | > 7.00 | > 7.00 | > 7.00 | > 5.30 | > 7.00 | > 5.30 |
